Assay results taken from US20070027175A1, “Antineoplastic activities of ellipticine and its derivatives” (priority 2005, published 2007).
Read-outs that look alike come from different tables or passages of the source.

What was measured:
DNA strand breakage = conditions: Multon et al., 1989; cited from earlier work
U266 myeloma cell line = system: U266 myeloma cell line; parameters: cell viability (CellTiter-Glo luminescent assay): dose or concentration left out as unconfirmed; conditions: U266
Description: (§1) The dosage of each derivative was set at 2, 0.2 and 0.02 mM. A cell culture medium control and 0.5% DMSO control was maintained in each experiment. The cell viability was tested each day over a period of five days using the CellTiter-Glo luminescent cell viability assay kit from Promega Co.
U266 cell line was one of 12 myeloma cell lines used in screening of anti-myeloma agents. In FIG. 10A, cells were treated with 14 ellipticine derivatives (0.5 mM) obtained from the DTP; control cells were untreated. Ellipticine derivatives are coded with NSC identifiers. For 5 days, cell viability was measured every 24 hours using CellTiter-Glo Luminescent Assay. […] In FIG. 10B, U266 cells, along with six other myeloma cell lines, were co-cultured in direct contact with human fetal bone mesenchymal cells and treated with EPED3 (0.5 mM and 2 mM) or Velcade (0.5 mM); control cells were untreated. Cell proliferation was assessed by MTT assay every 24 hours for 5 days. […] Error bars indicate standard deviation.
(§2) Cell Titer-Glo luminescent cell viability assay kit from Promega Co (Madison, Wis.) was used to determine cell growth inhibition by the various compounds tested. The kit determines cell viability by quantifying the amount of ATP present in the cell culture medium. Presence of ATP signals the presence of metabolically active cells (3). The intensity of luminescence was measured by a computerized luminometer (Promega, Co. Madison, Wis.). Each well was read five times within 30 minutes of adding Cell Titer-Glo reagent mixture.
(§3) Cells were contacted with the antineoplastic agents in ninety six well culture plates. The concentration of each neoplastic agent was maintained a constant. A cell culture medium control and 0.5% DMSO control were maintained in each set of experiments. The cell viability was tested every day using the CellTiter-Glo luminescent cell viability kit from Promega Co. (Madison, Wis.) for a period of five days.

[1] = system: myeloma cell lines ARK, KMS11, RPMI 8226, and U266; experiment: In vitro screening of DTP compounds on myeloma cell lines (CellTiter-Glo); format: cell-based, human
Description: Eight myeloma cell lines were contacted with the antineoplastic agents to be tested in ninety six well culture plates. […]
Myeloma cell lines were maintained at >90% viability at 37° C. and 5% CO2. Cells were diluted to 20,000 cells/ml in fresh medium. A 50-μl aliquot of cell suspension was seeded in 96-well tissue culture plates to final cell counts of 1,000 cells/well. All compounds obtained from NCI's Developmental Therapeutics Program (DTP compounds) were dissolved in 100% dimethylsulfoxide (DMSO) (Sigma-Aldrich, St. Louis, Mo.) at 1 mg/ml and further diluted in fresh medium to 1 μg/ml. Each compound (50-μl aliquots) was distributed to a well containing 1,000 myeloma cells. Each plate included controls with addition of only medium or only DMSO (0.5% final concentration). All experiments were conducted in triplicate.
Using CellTiter-Glo Luminescent Assay kit (Promega, Madison, Wis.) according to manufacturer's instructions, cell viability was assayed every 24 hours after addition of DTP compound for 5 days. Briefly, the CellTiter-Glo substrate was dissolved in buffer, and 100 μl was added to each well. […] The statistic sampling distribution for each compound per cell line was based on sample of n=15 measurements.
Other ellipticine derivatives from the DTP (at 0.5 mM final concentration) were used to screen the same four myeloma cell lines.

CAG myeloma cell line = experiment: CellTiter-Glo luminescent cell viability assay, CAG; format: cell-based, human; parameters: unit of the concentration uncertain
Description: as §1, §2, §3

[2] = system: RPMI8226 myeloma cell line; experiment: CellTiter-Glo luminescent cell viability assay, RPMI8226; format: cell-based, human; parameters: unit of the concentration uncertain
Description: as §1
as §2, with “mixture. […]” for “mixture.”

NCI-60 cancer panel = conditions: average across the cell lines of the concentration at which growth is inhibited 50%; unit in the High Conc. footnote; cited from earlier work
Ark myeloma cell line = experiment: CellTiter-Glo luminescent cell viability assay, Ark; format: cell-based, human; parameters: unit of the concentration uncertain
Description: as §1, §2, §3

Compound: CCN(CC)CC[n+]1ccc2c(C)c3[nH]c4ccc(O)cc4c3c(C)c2c1 [Detalliptinium]
- potency in DNA strand breakage, times less than m-AMSA (DNA strand breakage): 50 times

Compound: COc1ccc2[nH]c3c(C)c4ccncc4c(C)c3c2c1 [NSC 69187, ellipticine-9-methoxy-]
- cell viability (CellTiter-Glo luminescent assay) (U266 myeloma cell line; 0.02, Day 1): 30,188
- cell viability (CellTiter-Glo luminescent assay) (U266 myeloma cell line; 0.02, Day 2): 46,889
- cell viability (CellTiter-Glo luminescent assay) (U266 myeloma cell line; 0.02, Day 3): 63,864
- cell viability (CellTiter-Glo luminescent assay) (U266 myeloma cell line; 0.02, Day 4): 112,366
- cell viability (CellTiter-Glo luminescent assay) (U266 myeloma cell line; 0.02, Day 5): 145,073
- cell viability (CellTiter-Glo luminescent assay) (U266 myeloma cell line; 0.2, Day 1): 24,729
- cell viability (CellTiter-Glo luminescent assay) (U266 myeloma cell line; 0.2, Day 2): 38,799
- cell viability (CellTiter-Glo luminescent assay) (U266 myeloma cell line; 0.2, Day 3): 45,134
- cell viability (CellTiter-Glo luminescent assay) (U266 myeloma cell line; 0.2, Day 4): 69,867
- cell viability (CellTiter-Glo luminescent assay) (U266 myeloma cell line; 0.2, Day 5): 90,555
- cell viability (CellTiter-Glo luminescent assay) (U266 myeloma cell line; 2, Day 1): 7,818
- cell viability (CellTiter-Glo luminescent assay) (U266 myeloma cell line; 2, Day 2): 3,633
- cell viability (CellTiter-Glo luminescent assay) (U266 myeloma cell line; 2, Day 3): 1,048
- cell viability (CellTiter-Glo luminescent assay) (U266 myeloma cell line; 2, Day 4): 628
- cell viability (CellTiter-Glo luminescent assay) (U266 myeloma cell line; 2, Day 5): 144
- inhibition of cell viability in four myeloma cell lines ([1]; 0.5 mg/ml, every 24 hours over 5 days): most significantly inhibited cell viability
- effective invitro dosage (cell growth inhibition) ([1]; myeloma cell lines): 0.2 µM
- cell viability (CellTiter-Glo luminescent assay) (CAG myeloma cell line; 0.02 (unit uncertain), Day 1): 188,754
- cell viability (CellTiter-Glo luminescent assay) (CAG myeloma cell line; 0.02 (unit uncertain), Day 2): 552,402
- cell viability (CellTiter-Glo luminescent assay) (CAG myeloma cell line; 0.02 (unit uncertain), Day 3): 805,110
- cell viability (CellTiter-Glo luminescent assay) (CAG myeloma cell line; 0.02 (unit uncertain), Day 4): 2,582,505
- cell viability (CellTiter-Glo luminescent assay) (CAG myeloma cell line; 0.02 (unit uncertain), Day 5): 4,299,468
- cell viability (CellTiter-Glo luminescent assay) (CAG myeloma cell line; 0.2 (unit uncertain), Day 1): 164,436
- cell viability (CellTiter-Glo luminescent assay) (CAG myeloma cell line; 0.2 (unit uncertain), Day 2): 358,735
- cell viability (CellTiter-Glo luminescent assay) (CAG myeloma cell line; 0.2 (unit uncertain), Day 3): 511,726
- cell viability (CellTiter-Glo luminescent assay) (CAG myeloma cell line; 0.2 (unit uncertain), Day 4): 1,187,656
- cell viability (CellTiter-Glo luminescent assay) (CAG myeloma cell line; 0.2 (unit uncertain), Day 5): 1,595,148
- cell viability (CellTiter-Glo luminescent assay) (CAG myeloma cell line; 2 (unit uncertain), Day 1): 88,285
- cell viability (CellTiter-Glo luminescent assay) (CAG myeloma cell line; 2 (unit uncertain), Day 2): 58,508
- cell viability (CellTiter-Glo luminescent assay) (CAG myeloma cell line; 2 (unit uncertain), Day 3): 17,247
- cell viability (CellTiter-Glo luminescent assay) (CAG myeloma cell line; 2 (unit uncertain), Day 4): 9,111
- cell viability (CellTiter-Glo luminescent assay) (CAG myeloma cell line; 2 (unit uncertain), Day 5): 1,745
- cell viability (CellTiter-Glo luminescent assay) ([2]; 0.02 (unit uncertain), Day 1): 103,366
- cell viability (CellTiter-Glo luminescent assay) ([2]; 0.02 (unit uncertain), Day 2): 238,331
- cell viability (CellTiter-Glo luminescent assay) ([2]; 0.02 (unit uncertain), Day 3): 411,171
- cell viability (CellTiter-Glo luminescent assay) ([2]; 0.02 (unit uncertain), Day 4): 869,367
- cell viability (CellTiter-Glo luminescent assay) ([2]; 0.02 (unit uncertain), Day 5): 1,011,078
- cell viability (CellTiter-Glo luminescent assay) ([2]; 0.2 (unit uncertain), Day 1): 82,834
- cell viability (CellTiter-Glo luminescent assay) ([2]; 0.2 (unit uncertain), Day 2): 148,198
- cell viability (CellTiter-Glo luminescent assay) ([2]; 0.2 (unit uncertain), Day 3): 216,515
- cell viability (CellTiter-Glo luminescent assay) ([2]; 0.2 (unit uncertain), Day 4): 311,641
- cell viability (CellTiter-Glo luminescent assay) ([2]; 0.2 (unit uncertain), Day 5): 379,475
- cell viability (CellTiter-Glo luminescent assay) ([2]; 2 (unit uncertain), Day 1): 21,912
- cell viability (CellTiter-Glo luminescent assay) ([2]; 2 (unit uncertain), Day 2): 2,688
- cell viability (CellTiter-Glo luminescent assay) ([2]; 2 (unit uncertain), Day 3): 820
- cell viability (CellTiter-Glo luminescent assay) ([2]; 2 (unit uncertain), Day 4): 601
- cell viability (CellTiter-Glo luminescent assay) ([2]; 2 (unit uncertain), Day 5): 213
- Mean GI50 (NCI-60 cancer panel): −6.35 log^10 molar
- cell viability (CellTiter-Glo luminescent assay) (Ark myeloma cell line; 0.02 (unit uncertain), Day 1): 119,617
- cell viability (CellTiter-Glo luminescent assay) (Ark myeloma cell line; 0.02 (unit uncertain), Day 2): 244,779
- cell viability (CellTiter-Glo luminescent assay) (Ark myeloma cell line; 0.02 (unit uncertain), Day 3): 371,712
- cell viability (CellTiter-Glo luminescent assay) (Ark myeloma cell line; 0.02 (unit uncertain), Day 4): 824,251
- cell viability (CellTiter-Glo luminescent assay) (Ark myeloma cell line; 0.02 (unit uncertain), Day 5): 1,347,042
- cell viability (CellTiter-Glo luminescent assay) (Ark myeloma cell line; 0.2 (unit uncertain), Day 1): 92,678
- cell viability (CellTiter-Glo luminescent assay) (Ark myeloma cell line; 0.2 (unit uncertain), Day 2): 208,050
- cell viability (CellTiter-Glo luminescent assay) (Ark myeloma cell line; 0.2 (unit uncertain), Day 3): 256,789
- cell viability (CellTiter-Glo luminescent assay) (Ark myeloma cell line; 0.2 (unit uncertain), Day 4): 506,725
- cell viability (CellTiter-Glo luminescent assay) (Ark myeloma cell line; 0.2 (unit uncertain), Day 5): 826,957
- cell viability (CellTiter-Glo luminescent assay) (Ark myeloma cell line; 2 (unit uncertain), Day 1): 14,932
- cell viability (CellTiter-Glo luminescent assay) (Ark myeloma cell line; 2 (unit uncertain), Day 2): 815
- cell viability (CellTiter-Glo luminescent assay) (Ark myeloma cell line; 2 (unit uncertain), Day 3): 289
- cell viability (CellTiter-Glo luminescent assay) (Ark myeloma cell line; 2 (unit uncertain), Day 4): 463
- cell viability (CellTiter-Glo luminescent assay) (Ark myeloma cell line; 2 (unit uncertain), Day 5): 375
